Test results published in US4774381A, “Herbicide resistant tobacco” (E. I. Du Pont de Nemours and Company, priority 1985, dated 1988).

How the values were obtained:
Format in all cases: cell-based, Nicotiana tabacum
[1] = tested on: Isolate 24 (S4/+) cell line; assay: Callus growth test; settings: 14 days
Experimental: (§1) Callus growth tests were conducted substantially according to the following procedure. Approximately 50 mg callus tissue, grown on non-selective media, was spread over 7 cm diameter paper filter discs (Whatman No. 1), which were placed on the medium surface of petri dishes containing C1 agar media and varying concentrations of chlorsulfuron. The resulting cultures were incubated for 14 days at 25±1°, under fluorescent lamps programmed to provide a 16-hour photoperiod per day. At the conclusion of the incubation period, tissue was scraped from each filter disc and weighed. The final fresh weights were recorded, and means and standard errors of the means determined for all cases. The significance of differences between responses of individual cell lines to various concentrations of chlorsulfuron was determined at a probability level of 5% by a t-test for populations having different standard deviations, as described by Snedecor, et al., Statistical Methods (Iowa State University Press, Ames, Iowa, (1967), pp. 114-116).
(§2) The isolates tested were established from plants produced by self-fertilization of a S4/+ heterozygote produced by two successive backcrosses of a regenerated mutant plant to normal plants. In addition, growth responses were determined for cell cultures initiated from two individuals of the same genotype with respect to the S4 mutation. The genotypes of these cell lines were confirmed by progeny analyses of the plants from which they were derived. These precautions were intended to eliminate background variability which might otherwise obscure the effects of the resistance mutation.

[2] = tested on: Isolate 1 (+/+) cell line; assay: Callus growth test
Experimental: as §1, §2

[3] = tested on: Isolate 23 (S4/+) cell line; assay: Callus growth test; settings: 14 days
Experimental: as §1, §2

[4] = tested on: Isolate 30 (S4/S4) cell line; assay: Callus growth test; settings: 14 days
Experimental: as §1, §2

[5] = tested on: Isolate 7 (+/+) cell line; assay: Callus growth test; settings: 14 days
Experimental: as §1, §2

[6] = tested on: Isolate 16 (S4/S4) cell line; assay: Callus growth test
Experimental: as §1, §2

[7] = tested on: highly resistant tobacco cell line "A"; assay: Growth test of highly resistant cell line
From the text: Resistant colonies were selected as they appeared and transferred to medium containing this same elevated level of sulfometuron-methyl. Several cell lines that continued to grow during subsequent passages in the presence of 200 ppb of the herbicide were isolated. […] A large part of this resistance is the result of the S4 mutation, for which this cell line is homozygous. However, because cell line A is inhibited by 100 ppb sulfometuron-methyl to approximatey the same degree as its parent S4/S4 is inhibited by 10 ppb, it appears that the new event increased resistance ten-fold beyond that conferred by the S4/S4 genotype.

[8] = Nicotiana tabacum, 336 h, chlorsulfuron 0.3 ppb, read-out: % of fresh weight at 0 ppb
[9] = Nicotiana tabacum, 336 h, chlorsulfuron 1.0 ppb, read-out: % of fresh weight at 0 ppb
[10] = Nicotiana tabacum, 336 h, chlorsulfuron 3.0 ppb, read-out: % of fresh weight at 0 ppb
[11] = Nicotiana tabacum, 336 h, chlorsulfuron 10.0 ppb, read-out: % of fresh weight at 0 ppb
[12] = Nicotiana tabacum, 336 h, chlorsulfuron 30.0 ppb, read-out: % of fresh weight at 0 ppb
[13] = Nicotiana tabacum, 336 h, chlorsulfuron 1.0 ppb, 14 days, read-out: % of fresh weight at 0 ppb
[14] = Nicotiana tabacum, 336 h, chlorsulfuron 3.0 ppb, 14 days, read-out: % of fresh weight at 0 ppb

COc1nc(C)nc(NC(=O)NS(=O)(=O)c2ccccc2Cl)n1 [Chlorsulfuron, chlorsulfuron]
activity at 0.0003 µg/mL [1, 8]: 98.9% | activity at 0.001 µg/mL [1, 9]: 87.5% | activity at 0.003 µg/mL [1, 10]: 73% | activity at 0.01 µg/mL [1, 11]: 76.4% | activity at 0.03 µg/mL [1, 12]: 55.1% | Fr. Wt. ([1]; chlorsulfuron 0.1 ppb): 2895 ± 187 mg | Fr. Wt. ([1]; chlorsulfuron 0.3 ppb): 2842 ± 124 mg | Fr. Wt. ([1]; chlorsulfuron 1.0 ppb): 2515 ± 155 mg | Fr. Wt. ([1]; chlorsulfuron 3.0 ppb): 2099 ± 129 mg | Fr. Wt. ([1]; chlorsulfuron 10.0 ppb): 2196 ± 235 mg | Fr. Wt. ([1]; chlorsulfuron 30.0 ppb): 1585 ± 129 mg | significance of growth inhibition (t-test, 5%) ([2]; 0.1 ppb chlorsulfuron): significantly inhibited | activity at 0.0001 µg/mL ([2]; Nicotiana tabacum, 336 h, chlorsulfuron 0.1 ppb, 14 days, read-out: % of fresh weight at 0 ppb): 76.7% | activity at 0.0003 µg/mL ([2]; Nicotiana tabacum, 336 h, chlorsulfuron 0.3 ppb, 14 days, read-out: % of fresh weight at 0 ppb): 40.4% | activity at 0.001 µg/mL [2, 13]: 3.6% | activity at 0.003 µg/mL [2, 14]: 1.8% | Fr. Wt. ([2]; chlorsulfuron 0.1 ppb, 14 days): 2287 ± 198 mg | Fr. Wt. ([2]; chlorsulfuron 0.3 ppb, 14 days): 1204 ± 107 mg | Fr. Wt. ([2]; chlorsulfuron 1.0 ppb, 14 days): 106 ± 9 mg | Fr. Wt. ([2]; chlorsulfuron 3.0 ppb, 14 days): 55 ± 3 mg | activity at 0.0003 µg/mL [3, 8]: 95.8% | activity at 0.001 µg/mL [3, 9]: 93.8% | activity at 0.003 µg/mL [3, 10]: 89.9% | activity at 0.01 µg/mL [3, 11]: 57.6% | activity at 0.03 µg/mL [3, 12]: 28.1% | Fr. Wt. ([3]; chlorsulfuron 0.1 ppb): 2803 ± 153 mg | Fr. Wt. ([3]; chlorsulfuron 0.3 ppb): 2559 ± 174 mg | Fr. Wt. ([3]; chlorsulfuron 1.0 ppb): 2505 ± 134 mg | Fr. Wt. ([3]; chlorsulfuron 3.0 ppb): 2401 ± 218 mg | Fr. Wt. ([3]; chlorsulfuron 10.0 ppb): 1537 ± 90 mg | Fr. Wt. ([3]; chlorsulfuron 30.0 ppb): 749 ± 54 mg | activity at 0.001 µg/mL [4, 9]: 98.4% | activity at 0.03 µg/mL [4, 12]: 90.3% | Fr. Wt. ([4]; chlorsulfuron 0.1 ppb): 3235 ± 159 mg | Fr. Wt. ([4]; chlorsulfuron 0.3 ppb): 3157 ± 76 mg | Fr. Wt. ([4]; chlorsulfuron 1.0 ppb): 2707 ± 250 mg | Fr. Wt. ([4]; chlorsulfuron 3.0 ppb): 3287 ± 136 mg | Fr. Wt. ([4]; chlorsulfuron 10.0 ppb): 2975 ± 139 mg | Fr. Wt. ([4]; chlorsulfuron 30.0 ppb): 2486 ± 170 mg | activity at 0.0001 µg/mL ([5]; Nicotiana tabacum, 336 h, chlorsulfuron 0.1 ppb, read-out: % of fresh weight at 0 ppb): 93.1% | activity at 0.0003 µg/mL [5, 8]: 59.8% | activity at 0.001 µg/mL [5, 9]: 9.2% | activity at 0.003 µg/mL [5, 10]: 2.5% | Fr. Wt. ([5]; chlorsulfuron 0.1 ppb): 2170 ± 94 mg | Fr. Wt. ([5]; chlorsulfuron 0.3 ppb): 1395 ± 116 mg | Fr. Wt. ([5]; chlorsulfuron 1.0 ppb): 215 ± 33 mg | Fr. Wt. ([5]; chlorsulfuron 3.0 ppb): 58 ± 4 mg | activity at 0.001 µg/mL [6, 13]: 95.8% | activity at 0.003 µg/mL [6, 14]: 90% | activity at 0.01 µg/mL ([6]; Nicotiana tabacum, 336 h, chlorsulfuron 10.0 ppb, 14 days, read-out: % of fresh weight at 0 ppb): 95.5% | activity at 0.03 µg/mL ([6]; Nicotiana tabacum, 336 h, chlorsulfuron 30.0 ppb, 14 days, read-out: % of fresh weight at 0 ppb): 79.9% | significance of growth inhibition (t-test, 5%) ([6]; both homozygous mutant lines (Isolates 16 and 30), concentrations below 30 ppb): neither homozygous mutant cell was significantly inhibited | Fr. Wt. ([6]; chlorsulfuron 0.1 ppb, 14 days): 3755 ± 259 mg | Fr. Wt. ([6]; chlorsulfuron 0.3 ppb, 14 days): 3778 ± 219 mg | Fr. Wt. ([6]; chlorsulfuron 1.0 ppb, 14 days): 3148 ± 196 mg | Fr. Wt. ([6]; chlorsulfuron 3.0 ppb, 14 days): 2958 ± 161 mg | Fr. Wt. ([6]; chlorsulfuron 10.0 ppb, 14 days): 3171 ± 260 mg | Fr. Wt. ([6]; chlorsulfuron 30.0 ppb, 14 days): 2625 ± 202 mg | increase of tolerance of cultured cells by S4 mutation ([6]; homozygous lines at 30 ppb versus Isolate 7 at 0.3 ppb): at least 100 fold

COC(=O)c1ccccc1S(=O)(=O)NC(=O)Nc1nc(C)cc(C)n1 [Sulfometuron-methyl, sulfometuron-methyl]
increase of resistance beyond that conferred by the S4/S4 genotype ([7]; 100 ppb on cell line A versus 10 ppb on S4/S4): ten-fold | activity at 0.001 µg/mL ([7]; Nicotiana tabacum, sulfometuron-methyl 1 ppb, cell line "A", read-out: % of fresh weight at 0 ppb): 90% | activity at 0.01 µg/mL ([7]; Nicotiana tabacum, sulfometuron-methyl 10 ppb, cell line "A", read-out: % of fresh weight at 0 ppb): 74% | activity at 0.1 µg/mL ([7]; Nicotiana tabacum, sulfometuron-methyl 100 ppb, cell line "A", read-out: % of fresh weight at 0 ppb): 24% | activity at 1 µg/mL ([7]; Nicotiana tabacum, sulfometuron-methyl 1000 ppb, cell line "A", read-out: % of fresh weight at 0 ppb): 10% | concentration allowing growth relative to concentration that completely inhibits a normal cell line ([7]; growth at a greatly reduced rate): 1000 times | Fr. wt. ([7]; sulfometuron-methyl 1 ppb, cell line "A"): 2379 ± 243 mg | Fr. wt. ([7]; sulfometuron-methyl 10 ppb, cell line "A"): 1952 ± 133 mg | Fr. wt. ([7]; sulfometuron-methyl 100 ppb, cell line "A"): 629 ± 72 mg | Fr. wt. ([7]; sulfometuron-methyl 1000 ppb, cell line "A"): 263 ± 83 mg
